The text below walks through data of EP0811378A1, “PREVENTIVE/REMEDY FOR INTERSTITIAL PNEUMONIA, INFLAMMATORY INTESTINAL DISEASES OR VASCULAR THICKENING CONTAINING QUINOLIZINONE COMPOUNDS, SALT THEREOF OR HYDRATES THEREFOR” (priority 1995, dated 1996).

For orientation: inhibition means the percentage by which the read-out fell short of the control.

Structures can show the parent of a compound that is named as a salt. Some results are limits rather than exact numbers.

Data set [1] has as its system bleomycin-induced pulmonary fibrosis. Nature of the data set: Efficacy in a mouse model of bleomycin-induced pulmonary fibrosis. Type of data set: in vivo, ICR mice. The conditions noted are these: 1 mg/kg orally twice a day, day 28. The procedure: ICR mice (12 weeks old, male gender) were intravenously dosed with bleomycin (10 mg/kg) daily for 10 days. Test compound 1 was suspended in 0.5% methylcellulose solution and administered orally twice a day beginning the first day of bleomycin treatment till the day immediately preceding sacrifice. A control group received 0.5% methylcellulose solution in the like manner. Twenty-eight (28) days reckoning from administration of the initial dose of bleomycin, the mice were sacrificed, the lungs were isolated, and the lung hydroxyproline content was determined in accordance with Woessner's method. Histopathological specimens were also prepared at the same time and the degree of fibrotic change was evaluated after Azan-Mallory staining.

Data set [2] relates to silica-induced pulmonary fibrosis. Nature of the data set: Efficacy in a mouse model of silica-induced pulmonary fibrosis. The conditions noted are these: for Hydroxyproline content: lungs isolated 16 days after silica, Mean ± SE. Type of data set: in vivo, C57BL/6 mice. Here is the method:
Using C57BL/6 mice (8 weeks old, male gender), the neck was incised under pentobarbital anesthesia and silica (2 mg/0.1 ml/animal) was administered intra-tracheally. A sham operated intact group received physiological saline in the same manner. The drug was orally administered daily beginning the day of silica treatment till the day immediately preceding sacrifice. Thus, test compound 1 and tranilast were respectively administered once after silica treatment and twice daily on the next and subsequent days, in morning and evening. In the sham operated and control groups, 0.5% methylcellulose was similarly administered. Sixteen (16) days after sensitization, the mice were bled to death under pentobarbital anesthesia and the lungs were isolated. The hydroxyproline content of the isolated lungs was assayed and used as an indicator of pulmonary fibrosis. The difference in mean value between the control group and the treatment group or the sham operated group was tested by one-way analysis of variance and Dunnett multiple-comparison test.

Data set [3] relates to acetic acid-induced colitis. Nature of the data set: Efficacy in a rat model of acetic acid-induced colitis. The data set is classed as in vivo, SD rats. The conditions noted are these: po, inhibition of lesion score, read-out: Degree of inhibition. Here is the method: Male SD rats (7-8 weeks old) were deprived of food for 24 hours and a suspension of test compound 2 in 0.5% methylcellulose solution was administered orally. Thirty (30) minutes later, 1 ml/rat of 4% acetic acid in saline was infused from the anus under ether anesthesia. An intact group received a saline infusion. The infusion was carried out over 20 seconds. Then, the animal was held in inverted upright position for 30 seconds, after which 2 ml of phosphate buffer solution was infused for washout. Twenty-four (24) hours later, the animal was sacrificed by carbon dioxide inhalation, the large intestine was isolated, and the local lesion was scored according to the following criteria. Lesion score 0. No lesion 1. Hyperemia without ulceration 2. Inflammation (hyperemia and thickening of the bowel wall) or ulceration without definite inflammation 3. Ulceration with inflammation at 1 site 4. Ulceration with inflammation at 2 or more sites 5. A large ulcer sized 1 cm or more 6-10. An ulcer sized 2 cm or more; 1 point added for each increment of 1 cm

Data set [4] is described as follows: Oral acute toxicity in rats. Type of data set: in vivo.

`O=C(Nc1nnn[nH]1)c1cc(Oc2ccccc2)c2ccccn2c1=O` [Test compound 1, N-[5-(1H-tetrazolyl)]-1-phenoxy-4H-quinolizin-4-one-3-carboxamide sodium salt]: the “Histopathological examination, degree of fibrotic change” value in data set [1] (Azan-Mallory staining) was “definite inhibition of pulmonary fibrosis”. Besides, the inhibition at 1 mg/kg in data set [1] (Mus musculus, po, 672 h, inhibition of lung hydroxyproline content, read-out: Degree of inhibition) was determined as 88.6%; in data set [2] (Mus musculus, po, 384 h, inhibition of lung hydroxyproline content, 1 mg/kg orally twice daily, day 16, read-out: Degree of inhibition) it was 88.7%. The Hydroxyproline content entry in data set [2] (1 mg/kg orally twice daily, n=10) was “**144.41±9.69 µg/lung”.
Turning to `O=C(Nc1nnn[nH]1)c1cc(Oc2ccccc2)c2ccccn2c1=O` [Test compound 2, N-[5-(1H-tetrazolyl)]-1-phenoxy-4H-quinolizin-4-one-3-carboxamide sodium salt monohydrate], in data set [3] (1 mg/kg orally), the inhibition at 1 mg/kg is 38.3%. The inhibition at 10 mg/kg in data set [3] (10 mg/kg orally) is 68.1%. The “oral acute toxicity LD50” value in data set [4] (female gender) is reported as at least 5 g/kg/day; in data set [4] (male gender) it was 4.5 g/kg/day.
Take `COc1ccc(/C=C/C(=O)Nc2ccccc2C(=O)O)cc1OC` [Tranilast, reference compound]: the Hydroxyproline content in data set [2] (100 mg/kg orally twice daily, n=9) was 224.66±18.44 µg/lung. The inhibition at 100 mg/kg in data set [2] (Mus musculus, po, 384 h, inhibition of lung hydroxyproline content, 100 mg/kg orally twice daily, day 16, read-out: Degree of inhibition) was 13.6%.
